22 compounds from US9163012B2, “Carbamate and urea inhibitors of 11β-hydroxysteroid dehydrogenase 1” (Vitae Pharmaceuticals, Inc., priority 2009, dated 2015) can be followed below.

Where two headings read alike, the source gives them in different places. Some results are limits rather than exact numbers.

Assay type in all cases: biochemical
Assay [1] concerns the target T1, 11β-HSD1 (Homo sapiens (Human), UniProt P28845). The assay is described as follows: Biological Test Example 4: HTRF assay of 11β-HSD1 in human liver microsomes. To be noted: HTRF cortisol detection. On the procedure: In vitro inhibition of 11β-HSD1 by test compounds is determined with HTRF (Homogeneous Time-Resolved Fluorescence) technology (cisbio international, France) detecting cortisol generated from […] by human liver microsomes. […] Cortisol generated in the reaction is then detected with a competitive immunoassay, involving two HTRF conjugates: cortisol linked to XL665 and anti-cortisol antibody labeled with Europium cryptate. The incubation period for detection reaction is typically 2 hours. […] The ratio of the two emission signals is then calculated (Em665*10000/Em615). […] Each assay also contains a calibration curve with cortisol to transform the fluorescent data into cortisol concentrations. Percent inhibition (% CTL) of each compound is determined relative to the carbenoxolone signal and IC50 curves are generated.
Target sequence in this assay (P28845 whole entry): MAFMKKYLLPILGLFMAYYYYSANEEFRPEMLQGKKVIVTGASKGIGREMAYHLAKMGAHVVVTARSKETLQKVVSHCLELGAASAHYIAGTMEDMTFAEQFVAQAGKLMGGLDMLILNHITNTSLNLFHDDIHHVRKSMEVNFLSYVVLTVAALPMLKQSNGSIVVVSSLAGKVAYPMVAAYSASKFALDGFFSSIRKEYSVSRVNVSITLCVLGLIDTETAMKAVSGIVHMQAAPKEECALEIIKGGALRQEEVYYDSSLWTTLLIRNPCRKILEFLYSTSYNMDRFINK

Assay [2] addresses T1, 11β-HSD1. Description: Biological Test Example 3: inhibition of purified recombinant 11β-HSD1 (SPA). To be noted: purified recombinant 11β-HSD1 expressed in E. coli, read-out: IC50 Range. Here is the method: The inhibition of purified 11β-HSD1 by compounds of Formula I is measured using a Scintillation Proximity Assay. All reactions are carried out at room temperature in 96 well flexible Microbeta reaction plates. First, 1 μL of a 0.1 mM solution of a compound of Formula I is mixed in DMSO diluted in half-log increments (8 points) starting at 1 μM final concentration. To this dot is added 50 μL of substrate solution (50 mM HEPES, pH 7.4, 100 mM KCl, 5 mM NaCl, 2 mM MgCl2 containing 20 μM ^3H cortisone, 1 mM NADPH). […] The reaction is then incubated for 90 minutes, and stopped by adding 50 μl of SPA bead mix (18-β-glycyrrhetinic acid, 10 μM final, 5 mg/ml protein A coated YSi SPA beads, and 1 ug/ml α-cortisol antibody (East Coast Biologics)). The plate is shaken for 120 minutes, and the radioactivity corresponding to ^3H cortisol is measured on a Wallac Microbeta.
Target sequence in this assay (P28845 whole entry, species assumed): as the sequence (P28845 whole entry) above

Assay [3] addresses T1, 11β-HSD1. Description: Biological Test Example 1: inhibition of a microsomal preparation of 11β-HSD1 (SPA).
Target sequence in this assay (P28845 whole entry): as above
[4] abbreviates: Biological Test Example 1, microsomes from CHO cells overexpressing human 11β-HSD1, read-out: IC50 Range.
Where [5] appears, read: Biological Test Example 1, read-out: IC50.
[6] abbreviates: read-out: Average % inhibition at 100 nM, Biological Test Example 1, 100 nM compound.
The mark [7] stands for this setting: Biological Test Example 1, 100 nM compound.

For `N#Cc1ccn([C@@H]2CCN(C(=O)OC3C4CC5CC3CC(O)(C5)C4)C2)c(=O)c1` (single isomer, unassigned; isomer 1) [Example 78 Isomer 1], at 11β-HSD1 [1], the IC50 was greater than 10000 nM.

`O=C(OC1C2CC3CC(C2)CC1C3)N1CCCC1Cc1ccccc1` (stereo not shown) [EXAMPLE 9, 2-adamantyl 2-benzylpyrrolidine-1-carboxylate]: at 11β-HSD1 [2], the IC50 is less than 100 nM. As to `O=C(OC1C2CC3CC(C2)CC1C3)N1CCCC1c1ccccc1` (stereo not shown) [EXAMPLE 7, 2-adamantyl 2-phenylpyrrolidine-1-carboxylate], the IC50 on 11β-HSD1 [2] is less than 100 nM. With `N#Cc1ccc(=O)n([C@@H]2CCN(C(=O)OC3C4CC5CC3CC(O)(C5)C4)C2)c1` (stereo partly drawn) [Example 77, (R)-3-(5-Cyano-2-oxo-2H-pyridin-1-yl)-pyrrolidine-1-carboxylic acid 5-hydroxy-adamantan-2-yl ester], on 11β-HSD1 [1], the IC50 was greater than 10000 nM. With `Cc1ccccc1C1(CC(=O)O)CCN(C(=O)OC2C3CC4CC(C3)CC2C4)CC1` (stereo not shown) [EXAMPLE 12, 2-(1-(2-adamantyloxycarbonyl)-4-o-tolylpiperidin-4-yl)acetic acid], the IC50 on 11β-HSD1 [2] lay within 100 to 1000 nM.

With `N#Cc1ccn([C@@H]2CCN(C(=O)OC3C4CC5CC3CC(O)(C5)C4)C2)c(=O)c1` (single isomer, unassigned; isomer 2) [Example 78 Isomer 2], the IC50 at 11β-HSD1 [1] was 1170 nM. Consider `O=C(OC1C2CC3CC(C2)CC1C3)N1CCC(N2C(=O)Cc3ccccc32)CC1` (stereo not shown) [EXAMPLE 27, 2-adamantyl 4-(2-oxoindolin-1-yl)piperidine-1-carboxylate], for which, at 11β-HSD1 [2], the IC50 is less than 100 nM. As to `N#Cc1ccnc(O[C@@H]2CCN(C(=O)OC3C4CC5CC3CC(O)(C5)C4)C2)c1` (stereo partly drawn) [Example 79, (R)-3-(4-Cyano-hyridin-2-yloxy)-pyrrolidine-1-carboxylic acid 5-hydroxy-adamantan-2-yl ester], on 11β-HSD1 [1], the IC50 is greater than 10000 nM. `O=C(OC1C2CC3CC(C2)CC1C3)N1CCC(c2ccccc2)C1` (stereo not shown) [EXAMPLE 8, 2-adamantyl 3-phenylpyrrolidine-1-carboxylate]: on 11β-HSD1 [2], the half-inhibitory concentration (IC50) was less than 100 nM. As to `Cn1ccc(-c2csc(C3CCN(C(=O)O[C@H]4C5CC6CC4C[C@](C(N)=O)(C6)C5)C3)n2)cc1=O` (stereo partly drawn) [EXAMPLE 56, trans-1-carbamoyl-4-adamantyl 3-(4-(1-methyl-2-oxo-1,2-dihydropyridin-4-yl)thiazol-2-yl)pyrrolidine-1-carboxylate], the half-inhibitory concentration (IC50) at 11β-HSD1 [3] (setting [4]) was less than 100 nM; at 11β-HSD1 [3] (setting [5]) it was 1.95 nM. Further, at 11β-HSD1 [3] (setting [6]), the inhibition at 0.1 µM was determined as 96.7%. Turning to `CC(C)(O)CC1(c2ccccc2)CCN(C(=O)O[C@H]2C3CC4CC2C[C@](C(N)=O)(C4)C3)C1` (stereo partly drawn) [EXAMPLE 49, trans-1-carbamoyl-4-adamantyl 3-(2-hydroxy-2-methylpropyl)-3-phenylpyrrolidine-1-carboxylate], the half-maximal inhibitory concentration (IC50) at 11β-HSD1 [3] (setting [4]) is less than 100 nM; at 11β-HSD1 [3] (setting [5]), 2.07 nM. Also, on 11β-HSD1 [3] (setting [6]), the inhibition at 0.1 µM was 91.6%.

For `CCOC(=O)C1(Cc2ccccc2)CCCN(C(=O)OC2C3CC4CC(C3)CC2C4)C1` (stereo not shown) [EXAMPLE 13, 1-(2-adamantyl) 3-ethyl 3-benzylpiperidine-1,3-dicarboxylate], the IC50 at 11β-HSD1 [2] is less than 100 nM. With `Cc1csc(C2CCN(C(=O)OC3C4CC5CC3CC(C(N)=O)(C5)C4)C2)n1` (single isomer, unassigned) [EXAMPLE 42 Isomer 2, cis-1-carbamoyl-4-adamantyl 3-(4-methylthiazol-2-yl)pyrrolidine-1-carboxylate], the “Average % inhibition at 100 nM” value on 11β-HSD1 [3] (setting [7]) is 21.8%. Take `NC(=O)[C@]12CC3CC(C1)[C@@H](OC(=O)N1CC[C@H](n4c(=O)[nH]c5cccc(Cl)c54)C1)C(C3)C2` [EXAMPLE 67, (S)-trans-1-carbamoyl-4-adamantyl 3-(7-chloro-2-oxo-2,3-dihydro-1H-benzo[d]imidazol-1-yl)pyrrolidine-1-carboxylate]: the IC50 on 11β-HSD1 [3] (setting [4]) was less than 100 nM; on 11β-HSD1 [3] (setting [5]) it was 0.68 nM. For the same compound, at 11β-HSD1 [3] (setting [6]), the inhibition at 0.1 µM amounted to 97.7%. Take `Cn1c(C2CCN(C(=O)O[C@H]3C4CC5CC3C[C@](C(N)=O)(C5)C4)C2)nc2ccccc21` (stereo partly drawn) [EXAMPLE 31, (trans-1-carbamoyl-4-adamantyl) 3-(1-methyl-1H-benzo[d]imidazol-2-yl)pyrrolidine-1-carboxylate]: the IC50 is less than 100 nM at 11β-HSD1 [3] (setting [4]) and 91.7 nM on 11β-HSD1 [3] (setting [5]). In addition, the inhibition at 0.1 µM on 11β-HSD1 [3] (setting [6]) came to 44.1%. For `COc1cnc(C2CCN(C(=O)OC3C4CC5CC3CC(C(N)=O)(C5)C4)C2)nc1` (single isomer, unassigned) [EXAMPLE 44 Isomer 2, 1-carbamoyl-4-adamantyl 3-(5-methoxypyrimidin-2-yl)pyrrolidine-1-carboxylate], the “Average % inhibition at 100 nM” value at 11β-HSD1 [3] (setting [7]) turned out to be 2.4%. As to `NC(=O)[C@]12CC3CC(C1)[C@@H](OC(=O)N1CCCC1c1ccccn1)C(C3)C2` (stereo partly drawn) [EXAMPLE 19, trans-1-carbamoyl-4-adamantyl 2-(pyridin-2-yl)pyrrolidine-1-carboxylate], the values for the IC50 on 11β-HSD1 [3] (setting [4]) and on 11β-HSD1 [3] (setting [5]) were less than 100 nM and 6.74 nM, respectively. Besides, the inhibition at 0.1 µM on 11β-HSD1 [3] (read-out: Average % inhibition at 100 nM) worked out at 93.2%.

`Cc1nc2cc(F)ccc2n1C1CCN(C(=O)OC2C3CC4CC2CC(C(N)=O)(C4)C3)C1` (single isomer, unassigned; isomer 2) [EXAMPLE 74 Isomer 2]: the “Average % inhibition at 100 nM” value on 11β-HSD1 [3] was 83.2%. The values for the IC50 at 11β-HSD1 [3] (read-out: IC50) and on 11β-HSD1 [3] (read-out: IC50 Range) were 16.6 nM and less than 100 nM, respectively.

Take `COC(=O)COCC1(c2ccccc2)CCN(C(=O)OC2C3CC4CC(C3)CC2C4)CC1` (stereo not shown) [EXAMPLE 15, 2-adamantyl 4-((2-methoxy-2-oxoethoxy)methyl)-4-phenylpiperidine-1-carboxylate]: the inhibition at 0.111 µM on 11β-HSD1 [3] (Biological Test Example 1, 111 nM compound, read-out: Average % inhibition at 111 nM) worked out at 80.6%. In addition, the IC50 at 11β-HSD1 [3] (setting [4]) was less than 100 nM; at 11β-HSD1 [3] (setting [5]) it was 5.39 nM. Take `NC(=O)[C@]12CC3CC(C1)[C@@H](OC(=O)N1CC[C@@H](n4c(=O)[nH]c5cccc(Cl)c54)C1)C(C3)C2` [EXAMPLE 68, (R)-trans-1-carbamoyl-4-adamantyl 3-(7-chloro-2-oxo-2,3-dihydro-1H-benzo[d]imidazol-1-yl)pyrrolidine-1-carboxylate]: the 50% inhibitory concentration (IC50) at 11β-HSD1 [3] (setting [4]) is less than 100 nM; on 11β-HSD1 [3] (setting [5]), 0.46 nM. In addition, the inhibition at 0.1 µM on 11β-HSD1 [3] (setting [6]) turned out to be 96.9%. Regarding `O=C(O[C@H]1C2CC3CC1C[C@](O)(C3)C2)N1CC[C@@H](Oc2ccc(C(F)(F)F)cn2)C1` [EXAMPLE 4, (R)-(trans-(1-hydroxy-4-adamantyl)) 3-(5-(trifluoromethyl)pyridin-2-yloxy)pyrrolidine-1-carboxylate], the IC50 on 11β-HSD1 [3] (setting [4]) is less than 100 nM; at 11β-HSD1 [3] (setting [5]) it was 2.63 nM. In addition, the inhibition at 0.1 µM at 11β-HSD1 [3] (setting [6]) was determined as 90.3%.

Turning to `O=C(OC1C2CC3CC(C2)CC1C3)N1CCC(Cc2ccccc2)C1` (stereo not shown) [EXAMPLE 10, 2-adamantyl 3-benzylpyrrolidine-1-carboxylate], on 11β-HSD1 [2], the half-inhibitory concentration (IC50) is less than 100 nM.

One may read the IC50 as the point on the concentration scale where inhibition reaches its midpoint. Usually inhibition stands for the relative decrease from the control value, in per cent.
